Reference: article PMC5503199 (Molecular microbiology, 2009)

Tests used:
CbcWV-CaiX = CbcWV-CaiX (Pseudomonas aeruginosa, UniProt Q9HTH6); test: Uptake kinetics, PA5378::tn; conditions: pNcbcWV, SBP CaiXPAO1, mean (SE), n = 4
ChoXWV = biological target: T1, ChoXWV (Sinorhizobium meliloti, UniProt Q92N37); test: Uptake kinetics, MKH13; conditions: MKH13, pNchoXWV; SBP ChoX; mean (SE), n = 4
T1 sequence (Q92N37 28-318): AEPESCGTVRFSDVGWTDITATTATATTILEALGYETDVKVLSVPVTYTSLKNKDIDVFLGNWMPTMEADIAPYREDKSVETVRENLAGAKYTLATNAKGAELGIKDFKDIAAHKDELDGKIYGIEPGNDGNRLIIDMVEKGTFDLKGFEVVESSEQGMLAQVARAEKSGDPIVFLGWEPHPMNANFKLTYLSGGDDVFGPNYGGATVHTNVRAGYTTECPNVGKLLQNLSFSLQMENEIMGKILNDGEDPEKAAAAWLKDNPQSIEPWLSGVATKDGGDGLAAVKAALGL
T1 sequence (Q92N36 1-281 partner): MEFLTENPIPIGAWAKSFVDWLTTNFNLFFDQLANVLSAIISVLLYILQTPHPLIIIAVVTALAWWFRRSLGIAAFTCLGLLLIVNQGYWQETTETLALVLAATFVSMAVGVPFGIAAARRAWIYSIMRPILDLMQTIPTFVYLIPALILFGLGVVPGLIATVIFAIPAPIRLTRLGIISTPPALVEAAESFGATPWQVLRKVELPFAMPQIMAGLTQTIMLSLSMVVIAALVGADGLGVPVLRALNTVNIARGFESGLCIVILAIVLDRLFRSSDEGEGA
T1 sequence (Q92N35 1-349 partner): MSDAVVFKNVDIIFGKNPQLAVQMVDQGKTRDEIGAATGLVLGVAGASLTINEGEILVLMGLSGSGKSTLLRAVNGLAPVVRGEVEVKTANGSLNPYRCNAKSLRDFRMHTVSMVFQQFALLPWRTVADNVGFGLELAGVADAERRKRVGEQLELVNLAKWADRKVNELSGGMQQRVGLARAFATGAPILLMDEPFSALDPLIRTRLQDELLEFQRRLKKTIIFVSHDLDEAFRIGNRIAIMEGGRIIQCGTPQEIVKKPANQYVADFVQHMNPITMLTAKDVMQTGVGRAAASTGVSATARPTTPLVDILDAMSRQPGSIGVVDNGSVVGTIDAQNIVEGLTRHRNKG

CbcWV-CaiX, sequence (Q9HTH6 23-312): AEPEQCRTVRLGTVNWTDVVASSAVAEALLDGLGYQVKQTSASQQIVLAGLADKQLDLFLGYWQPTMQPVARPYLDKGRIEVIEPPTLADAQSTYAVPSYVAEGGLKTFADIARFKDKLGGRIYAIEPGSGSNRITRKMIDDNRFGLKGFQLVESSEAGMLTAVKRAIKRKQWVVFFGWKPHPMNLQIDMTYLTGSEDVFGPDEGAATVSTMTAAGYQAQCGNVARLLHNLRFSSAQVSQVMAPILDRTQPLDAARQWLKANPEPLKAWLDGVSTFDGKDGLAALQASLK
CbcWV-CaiX, sequence (Q9HTI7 1-279 partner): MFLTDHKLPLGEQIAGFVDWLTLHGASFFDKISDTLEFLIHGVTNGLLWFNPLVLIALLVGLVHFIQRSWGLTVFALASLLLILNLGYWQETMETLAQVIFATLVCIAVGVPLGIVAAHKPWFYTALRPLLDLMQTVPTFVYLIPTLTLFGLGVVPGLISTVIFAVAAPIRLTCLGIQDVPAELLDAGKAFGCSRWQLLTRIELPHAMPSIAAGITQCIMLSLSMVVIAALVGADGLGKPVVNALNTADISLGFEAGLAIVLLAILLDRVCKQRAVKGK
CbcWV-CaiX, sequence (Q9HTI8 1-392 partner): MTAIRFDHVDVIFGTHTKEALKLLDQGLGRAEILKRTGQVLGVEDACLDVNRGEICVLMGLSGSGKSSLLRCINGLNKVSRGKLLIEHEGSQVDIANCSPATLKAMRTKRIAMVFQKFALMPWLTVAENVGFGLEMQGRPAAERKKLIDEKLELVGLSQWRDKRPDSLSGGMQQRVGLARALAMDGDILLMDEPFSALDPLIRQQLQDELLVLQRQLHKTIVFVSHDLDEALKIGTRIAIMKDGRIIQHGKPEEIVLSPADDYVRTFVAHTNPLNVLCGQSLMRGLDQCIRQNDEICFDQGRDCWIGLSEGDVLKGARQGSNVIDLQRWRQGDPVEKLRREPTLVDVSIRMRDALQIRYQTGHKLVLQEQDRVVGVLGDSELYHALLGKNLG

SMILES	maximal rate of uptake (Vmax) (CbcWV-CaiX)	maximal rate of uptake (Vmax) (ChoXWV)
C[N+](C)(C)C[C@H](O)CC(=O)[O-] [Carnitine, L-carnitine]	3.8 (0.33) nmol min^−1 (mg protein)^−1	–
C[N+](C)(C)CCO [Choline, choline]	–	1.2 (0.05) nmol min^−1 (mg protein)^−1
